Patent publication US20120270844A1, “METHODS FOR TREATING ALZHEIMER'S DISEASE” (aFRAXis, Inc., priority 2009, published 2012)

Assays:
Format in all cases: biochemical
PAK4 = PAK4 (Homo sapiens, UniProt O96013); experiment: Z'Lyte fluorescence-based (FRET) PAK kinase assay, PAK4; details: 5 μM ATP
Description: (§1) A fluorescence-based assay format is used to determine IC50 values of test compounds in vitro. Purified PAK kinase is incubated with ATP, and a test compound at various concentrations and a substrate peptide containing two fluorophores. In a second step, the reaction mix is incubated with a site-specific protease that cleaves non-phosphorylated bat not phosphorylated substrate peptide, disrupting the FRET signal generated by the two fluorophores in the cleaved peptide (Z′Lyte™ Kinase assay platform; Life Technologies).
(§2) Reagents: 50 mM HEPES, pH 7.5; 0.01% BRIJ-35; 10 nM MgCl1; 1 mM EGTA, 2 uM substrate peptide Ser/Thr20 (proprietary Life Technologies Sequence), PAK enzyme [2.42-30.8 ng for PAK1, 0.29-6 ng for PAK2, 1.5-20 ng for PAK3 and 0.1-0.86 ng for PAK4; actual enzyme amounts depend on lot activity of the enzyme preparation]
(§3) Test compounds are dissolved in DMSO at various concentrations; the final DMSO concentration in the assay reaction is 1%.
(§4) ATP concentration at Kin apparent is used in the assay [50 ┌M ATP for PAK1 assay, 75 ┌M ATP for PAK2 assay, 100 μM ATP for PAK3 assay, 5 μM ATP for PAK4 assay] in a total assay volume of 10 μl. Assay reactions are incubated at room temperature for 1 hr. Following the kinase reaction, 5 μl of 1:256 dilution of development solution A (Life Technologies) is added and the reaction mix is incubated for an additional 1 hr at room temperature.
(§5) Plates are analyzed in a standard fluorescence plate reader (Tecan or equivalent) using an excitation wavelength of 400 nn and emission wavelengths of 445 nm and 520 nm.
(§6) Inhibition of kinase reaction is determined by emission ratio=emission@445 nm/emission@520 nm
as §1, with “non-phosphorylated but” for “non-phosphorylated bat”, “peptide (Z'Lyte™” for “peptide (Z′Lyte™”, “assay platform” for “assay platform;”
as §2, with “mM MgCl2;” for “nM MgCl1;”
as §4, with “at Km” for “at Kin”, “[50 μMATP” for “[50 ┌M ATP”, “75 µM” for “75 ┌M”, “[…]” for “10 μl.”, “kinase reaction.” for “kinase reaction,”, “[…]” for “5 μl”
(§7) Plates are analyzed in a standard fluorescence plate reader (Teem or equivalent) using an excitation wavelength of 400 nm and emission wavelengths of 445 nm and 520 nm.

PAK1 = PAK1 (Homo sapiens, UniProt Q13153); experiment: Z'Lyte fluorescence-based (FRET) PAK kinase assay, PAK1; details: 50 μM ATP
Description: as §1, §2, §3, §4, §5, §6
as §1, with “non-phosphorylated but” for “non-phosphorylated bat”, “peptide (Z'Lyte™” for “peptide (Z′Lyte™”, “assay platform” for “assay platform;”
as §2, with “mM MgCl2;” for “nM MgCl1;”
as §4, with “at Km” for “at Kin”, “[50 μMATP” for “[50 ┌M ATP”, “75 µM” for “75 ┌M”, “[…]” for “10 μl.”, “kinase reaction.” for “kinase reaction,”, “[…]” for “5 μl”
as §7

PAK2 = PAK2 (Homo sapiens, UniProt Q13177); experiment: Z'Lyte fluorescence-based (FRET) PAK kinase assay, PAK2
Description: as §1, §2, §3, §4, §5, §6
as §1, with “non-phosphorylated but” for “non-phosphorylated bat”, “peptide (Z'Lyte™” for “peptide (Z′Lyte™”, “assay platform” for “assay platform;”
as §2, with “mM MgCl2;” for “nM MgCl1;”
as §4, with “at Km” for “at Kin”, “[50 μMATP” for “[50 ┌M ATP”, “75 µM” for “75 ┌M”, “[…]” for “10 μl.”, “kinase reaction.” for “kinase reaction,”, “[…]” for “5 μl”
as §7

[1] = Table 1 of Example 29 (own compound numbering)
[2] = Table 1 of Example 100, 75 μM ATP
[3] = Table 1 of Example 29 (own compound numbering), 75 µM ATP

Sequence of PAK1 (Q13153 whole entry): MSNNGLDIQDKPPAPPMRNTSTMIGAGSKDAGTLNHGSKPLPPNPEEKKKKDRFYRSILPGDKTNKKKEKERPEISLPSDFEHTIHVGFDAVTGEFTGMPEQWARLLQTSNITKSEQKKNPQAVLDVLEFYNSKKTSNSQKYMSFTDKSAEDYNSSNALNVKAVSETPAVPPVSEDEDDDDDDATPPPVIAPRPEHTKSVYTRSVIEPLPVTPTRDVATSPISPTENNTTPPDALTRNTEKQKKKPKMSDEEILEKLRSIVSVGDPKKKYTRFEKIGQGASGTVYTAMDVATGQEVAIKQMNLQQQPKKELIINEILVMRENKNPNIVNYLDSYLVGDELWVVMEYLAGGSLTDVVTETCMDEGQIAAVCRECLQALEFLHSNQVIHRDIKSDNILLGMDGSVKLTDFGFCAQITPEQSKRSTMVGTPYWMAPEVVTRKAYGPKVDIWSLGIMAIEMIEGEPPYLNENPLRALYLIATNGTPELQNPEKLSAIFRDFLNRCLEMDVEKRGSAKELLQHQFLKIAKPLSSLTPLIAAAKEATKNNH
Sequence of PAK2 (Q13177 whole entry): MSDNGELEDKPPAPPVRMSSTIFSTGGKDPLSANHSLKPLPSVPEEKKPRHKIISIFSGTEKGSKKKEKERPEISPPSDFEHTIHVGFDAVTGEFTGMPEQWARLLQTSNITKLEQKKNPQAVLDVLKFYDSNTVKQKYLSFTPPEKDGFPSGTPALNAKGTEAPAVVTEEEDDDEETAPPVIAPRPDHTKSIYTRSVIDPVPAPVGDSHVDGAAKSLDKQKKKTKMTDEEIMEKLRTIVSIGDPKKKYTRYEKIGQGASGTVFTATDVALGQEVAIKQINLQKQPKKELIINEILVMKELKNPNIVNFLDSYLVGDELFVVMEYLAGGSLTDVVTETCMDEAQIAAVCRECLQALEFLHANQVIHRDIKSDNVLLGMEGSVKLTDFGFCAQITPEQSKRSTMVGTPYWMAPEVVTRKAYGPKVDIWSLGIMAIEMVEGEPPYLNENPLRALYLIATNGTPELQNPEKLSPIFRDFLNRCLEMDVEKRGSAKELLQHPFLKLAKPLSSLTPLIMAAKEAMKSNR
Sequence of PAK4 (O96013 whole entry): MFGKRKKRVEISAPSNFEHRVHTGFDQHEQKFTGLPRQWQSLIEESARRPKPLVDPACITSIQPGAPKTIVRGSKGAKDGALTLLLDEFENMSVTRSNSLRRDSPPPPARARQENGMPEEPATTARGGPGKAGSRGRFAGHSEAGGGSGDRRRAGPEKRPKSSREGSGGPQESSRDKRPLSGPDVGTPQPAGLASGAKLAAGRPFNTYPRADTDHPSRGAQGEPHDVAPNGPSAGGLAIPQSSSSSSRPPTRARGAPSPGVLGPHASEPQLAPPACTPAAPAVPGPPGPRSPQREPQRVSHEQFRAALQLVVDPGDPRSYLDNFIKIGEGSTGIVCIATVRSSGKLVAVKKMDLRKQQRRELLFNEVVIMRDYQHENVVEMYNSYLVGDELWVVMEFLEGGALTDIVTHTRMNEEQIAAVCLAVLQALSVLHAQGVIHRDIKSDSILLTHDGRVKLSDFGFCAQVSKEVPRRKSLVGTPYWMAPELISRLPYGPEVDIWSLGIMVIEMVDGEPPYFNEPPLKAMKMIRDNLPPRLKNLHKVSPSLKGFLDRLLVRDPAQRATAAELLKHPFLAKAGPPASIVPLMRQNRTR

Row | SMILES | IC50 (PAK4; [1]) [nM] | IC50 (PAK1; [1]) [nM] | IC50 (PAK4; Table 1 of Example 100) [nM] | IC50 (PAK2; [2]) [nM] | IC50 (PAK1; Table 1 of Example 100) [nM] | IC50 (PAK2; [3]) [nM]
1 | O=c1ccc2cnc(Nc3ccc(N4CCNCC4)c(F)c3)nc2n1C1Cc2ccccc2C1 [compound 77] | < 1000 | < 1000 | – | – | – | –
2 | CN(C)CCNc1ccc(Nc2ncc3ccc(=O)n(C4CCCC4)c3n2)cc1 [Compound 4] | – | – | 1000 to 10000 | 1000 to 10000 | 1000 to 10000 | –
3 | CN(C)CC(c1ccccc1)n1c(=O)ccc2cnc(Nc3ccc(N4CCN(C)CC4)cc3)nc21 (centres unmarked) [compound 75] | > 10000 | > 10000 | – | – | – | –
4 | CN1CCN(c2ccc(Nc3ncc4ccc(=O)n(Cc5ccccc5F)c4n3)cc2)CC1 [compound 89] | 1000 to 10000 | 1000 to 10000 | – | – | – | –
5 | Cc1ccccc1Cn1c(=O)ccc2cnc(Nc3ccc(N4CCN(C)CC4)cc3)nc21 [Compound 39] | – | – | 1000 to 10000 | < 1000 | < 1000 | –
6 | CN1CCN(c2ccc(Nc3ncc4ccc(=O)n(Cc5ccccc5)c4n3)cc2)CC1 [Compound 26] | – | – | – | 1000 to 10000 | – | –
7 | CN1CCN(c2ccc(Nc3ncc4ccc(=O)n(Cc5ccncc5)c4n3)cc2)CC1 [compound 91] | > 10000 | 1000 to 10000 | – | – | – | –
8 | CN1CCN(c2ccc(Nc3ncc4ccc(=O)n(Cc5cccnc5)c4n3)cc2)CC1 [Compound 38] | – | – | > 10000 | > 10000 | 1000 to 10000 | –
9 | CN1CCN(c2ccc(Nc3ncc4ccc(=O)n(Cc5ccc(Cl)cc5)c4n3)cc2)CC1 [Compound 30] | – | – | > 10000 | > 10000 | 1000 to 10000 | –
10 | CN1CCN(c2ccc(Nc3ncc4ccc(=O)n(C5CCc6ccccc65)c4n3)cc2)CC1 (centres unmarked) [compound 62] | 1000 to 10000 | < 1000 | – | – | – | –
11 | O=c1ccc2cnc(Nc3ccc(OC4CCNCC4)cc3)nc2n1Cc1ccccc1C(F)(F)F [compound 68] | < 1000 | < 1000 | – | – | – | –
12 | CN1CCN(c2ccc(Nc3ncc4ccc(=O)n(Cc5ccccc5Cl)c4n3)cc2)CC1 [Compound 31] | – | – | 1000 to 10000 | < 1000 | < 1000 | –
13 | O=c1ccc2cnc(Nc3ccc(N4CCNCC4)c(F)c3)nc2n1C1CCc2ccccc2C1 (centres unmarked) [compound 78] | < 1000 | < 1000 | – | – | – | –
14 | O=c1ccc2cnc(Nc3ccc(N4CCOCC4)cc3)nc2n1C1CCCC1 [Compound 2] | – | – | 1000 to 10000 | > 10000 | > 10000 | –
15 | CN1CCN(c2ccc(Nc3nccc(-c4ccc(O)nc4)n3)cc2)CC1 [Compound 143] | > 10000 | 1000 to 10000 | – | – | – | > 10000
16 | CN(C)CCNc1ccc(Nc2ncc3ccc(=O)n(C4CCCC4)c3n2)cc1 [compound 60] | 1000 to 10000 | 1000 to 10000 | – | – | – | –
17 | CN1CCN(c2ccc(Nc3ncc4ccc(=O)n(C5CCCC5)c4n3)cc2)CC1 [compound 57] | 1000 to 10000 | < 1000 | – | – | – | –
18 | CN1CCN(c2ccc(Nc3ncc4ccc(=O)n(Cc5cccc(F)c5)c4n3)cc2)CC1 [Compound 27] | – | – | 1000 to 10000 | 1000 to 10000 | 1000 to 10000 | –
19 | COc1ccc(Cn2c(=O)ccc3cnc(Nc4ccc(N5CCN(C)CC5)cc4)nc32)cc1 [Compound 29] | – | – | > 10000 | > 10000 | > 10000 | –
20 | CN1CCN(c2ccc(Nc3ncc4ccc(=O)n(C5CCCc6ccccc65)c4n3)cc2)CC1 (centres unmarked) [compound 67] | 1000 to 10000 | < 1000 | – | – | – | –
21 | CN1CCN(c2ccc(Nc3ncc4ccc(=O)n(Cc5ccccc5OC(F)(F)F)c4n3)cc2)CC1 [compound 95] | 1000 to 10000 | < 1000 | – | – | – | –
22 | CN1CCN(c2ccc(Nc3ncc4ccc(=O)n(Cc5ccccc5)c4n3)cc2)CC1 [compound 80] | > 10000 | 1000 to 10000 | – | – | – | 1000 to 10000
23 | CN1CCN(c2ccc(Nc3ncc4ccc(=O)n(Cc5ccccc5C(F)(F)F)c4n3)cc2)CC1 [compound 96] | < 1000 | < 1000 | – | – | – | –
24 | CN1CCN(c2ccc(Nc3ncc4ccc(=O)n(Cc5ccc(F)cc5)c4n3)cc2)CC1 [Compound 28] | – | – | > 10000 | > 10000 | 1000 to 10000 | –
25 | Cc1ccc(C)c(Cn2c(=O)ccc3cnc(Nc4ccc(N5CCN(C)CC5)cc4)nc32)c1 [compound 100] | 1000 to 10000 | 1000 to 10000 | – | – | – | –

Row | SMILES | IC50 (PAK4; [1]) [nM] | IC50 (PAK1; [1]) [nM] | IC50 (PAK4; Table 1 of Example 100) [nM] | IC50 (PAK2; [2]) [nM] | IC50 (PAK1; Table 1 of Example 100) [nM] | IC50 (PAK2; [3]) [nM]
26 | O=c1ccc2cnc(Nc3ccc(NC4CCNCC4)cc3)nc2n1Cc1ccccc1C(F)(F)F [compound 64] | < 1000 | < 1000 | – | – | – | –
27 | CN1CCN(c2ccc(Nc3ncc4ccc(=O)n(Cc5ccccc5C#N)c4n3)cc2)CC1 [Compound 40] | – | – | 1000 to 10000 | < 1000 | < 1000 | –
28 | CN(C)c1ccc(Nc2ncc3ccc(=O)n(C4CCCC4)c3n2)cc1 [Compound 3] | – | – | 1000 to 10000 | > 10000 | > 10000 | –
29 | CN1CCN(c2ccc(Nc3ncc4ccc(=O)n(Cc5ccccc5C#N)c4n3)cc2)CC1 [compound 94] | 1000 to 10000 | < 1000 | – | – | – | –
30 | Cc1cc(F)ccc1Cn1c(=O)ccc2cnc(Nc3ccc(N4CCN(C)CC4)cc3)nc21 [compound 99] | 1000 to 10000 | 1000 to 10000 | – | – | – | –
31 | CN1CCN(c2ccc(Nc3ncc4ccc(=O)n(Cc5ccccn5)c4n3)cc2)CC1 [Compound 36] | – | – | 1000 to 10000 | > 10000 | 1000 to 10000 | –
32 | COc1ccc(Cn2c(=O)ccc3cnc(Nc4ccc(N5CCN(C)CC5)cc4)nc32)cc1 [compound 83] | > 10000 | > 10000 | – | – | – | –
33 | Cc1ccccc1Cn1c(=O)ccc2cnc(Nc3ccc(N4CCN(C)CC4)cc3)nc21 [compound 93] | 1000 to 10000 | – | – | – | – | –
34 | CN1CCN(c2ccc(Nc3ncc4ccc(=O)n([C@@H]5CCCc6ccccc65)c4n3)cc2)CC1 [compound 66] | 1000 to 10000 | 1000 to 10000 | – | – | – | –
35 | CN1CCN(c2ccc(Nc3ncc4ccc(=O)n(Cc5ccccc5OC(F)F)c4n3)cc2)CC1 [compound 98] | < 1000 | < 1000 | – | – | – | –
36 | CN1CCN(c2ccc(Nc3ncc4ccc(=O)n(Cc5ccc(F)cc5)c4n3)cc2)CC1 [compound 82] | > 10000 | 1000 to 10000 | – | – | – | –
37 | CN1CCN(c2ccc(Nc3ncc4ccc(=O)n(Cc5cccnc5)c4n3)cc2)CC1 [compound 92] | > 10000 | 1000 to 10000 | – | – | – | –
38 | CN1CCN(c2ccc(Nc3ncc4ccc(=O)n(C5CCc6ccccc6C5)c4n3)cc2)CC1 (centres unmarked) [compound 74] | < 1000 | < 1000 | – | – | – | –
39 | CN1CCN(c2ccc(Nc3ncc4ccc(=O)n(Cc5ccc(Cl)cc5)c4n3)cc2)CC1 [compound 84] | > 10000 | 1000 to 10000 | – | – | – | –
40 | CN(C)CC(c1ccccc1)n1c(=O)ccc2cnc(Nc3ccc(N4CCOCC4)cc3)nc21 (centres unmarked) [compound 72] | > 10000 | > 10000 | – | – | – | –
41 | CN1CCN(c2ccc(Nc3ncc4ccc(=O)n(Cc5ccccn5)c4n3)cc2)CC1 [compound 90] | 1000 to 10000 | 1000 to 10000 | – | – | – | –
42 | O=c1ccc2cnc(Nc3ccc(N4CCOCC4)cc3)nc2n1C1CCCC1 [compound 58] | 1000 to 10000 | > 10000 | – | – | – | –
43 | COc1ccccc1Cn1c(=O)ccc2cnc(Nc3ccc(N4CCN(C)CC4)cc3)nc21 [compound 88] | 1000 to 10000 | < 1000 | – | – | – | –
44 | O=c1ccc2cnc(Nc3ccc(OC4CCCNC4)cc3)nc2n1Cc1ccccc1C(F)(F)F (centres unmarked) [compound 70] | < 1000 | < 1000 | – | – | – | –
45 | CN1CCN(c2ccc(Nc3ncc4ccc(=O)n(Cc5ccccc5Cl)c4n3)cc2)CC1 [compound 85] | 1000 to 10000 | < 1000 | – | – | – | –
46 | O=c1ccc2cnc(Nc3ccc(NC4CCCNC4)cc3)nc2n1Cc1ccccc1C(F)(F)F (centres unmarked) [compound 63] | < 1000 | < 1000 | – | – | – | –
47 | CN1CCN(c2ccc(Nc3ncc4ccc(=O)n(C5Cc6ccccc6C5)c4n3)cc2)CC1 [compound 73] | < 1000 | < 1000 | – | – | – | –
48 | CN1CCN(c2ccc(Nc3ncc4ccc(=O)n(C5CCOc6ccccc65)c4n3)cc2)CC1 (centres unmarked) [compound 71] | 1000 to 10000 | 1000 to 10000 | – | – | – | –
49 | CN(C)c1ccc(Nc2ncc3ccc(=O)n(C4CCCC4)c3n2)cc1 [compound 59] | 1000 to 10000 | > 10000 | – | – | – | –
